Assay results taken from patent US9161944B2, “Method for preventing cancer metastasis” (INSERM (INSTITUT NATIONAL DE LA SANTE ET DE LA SANTE ET DE …, priority 2010, dated 2015).

Tests used:
SKCa channel = test: 125I-apamin binding, membrane homogenates of cerebral cortex; conditions: 0.3 and 2 μM, FIG. 8E
Procedure: FIG. 8: Effect of JPH1701 on SK3 channel activity. […] Results are expressed as the mean±S.E.M. FIG. 8C) Histograms showing the effect of racemic hexadecyloxy-2-O-methyl-sn-glycerol-lactose (JPH 1701 or Ohmline, i.e: JPH1701 in the example) mixture and of both enantiomers (R-JPH1701 and S-JPH1701) on SK3 activity. The percentages of inhibition represent the ratio (SK3 current amplitude and chord conductance (in the presence of 10 μM JPH1701)/SK3 current amplitude in control experiments). Black bars show current at 0 mV and grey bars indicate the chord conductance. FIG. 8D) Dose-response effect of the form + of JPH1701 (concentrations: 0 (control), 0.3, 1 and 10 μM). Columns, mean, bars, SEM, (5 cells for racemic mix and 4 cells for + and − forms). FIG. 8E) Histogram showing the % of control specific binding of ^125I-Apamin ([…]) to SKCa channel obtained from membrane homogenates of cerebral cortex by 0.3 and 2 μM JPH1701.
To investigate whether JPH1701 interacts with the apamin binding site, 125I-apamin binding studies were performed.

PhosphoLipase C (PLC) = test: PhosphoLipase C activity; format: biochemical; conditions: FIG. 11D
Procedure: (§1) FIG. 11: Effects of JPH1701 on PAF receptor, PLC and PKCs activities. FIG. 11A) Histogram showing the percentage of control specific binding of 3H-C16-PAF to recombinant PAF receptor obtained from membrane homogenates of CHO cells by 0.3 and 2 μM edelfosine and by 0.3 and 2 μM JPH1701. FIG. 11B) Histogram showing the percentage of control agonist response (% effect i.e: increase of intracellular calcium concentration) of 0.3 and 2 μM edelfosine and JPH1701 on PAF receptor normalized to the response induced by 100 nM C16-PAF. […] FIG. 11C-D) Dose responses curves showing the effect of JPH1701 on PKCs (FIG. 11C, PKCs are: alpha, Beta 1, Beta 2, Gamma, Delta, Epsilon, Zeta, Eta, Theta, Iota) and PhosphoLipase C (PLC) activities (FIG. 11D).

[1] = tested on: LPA (lysophosphatidic acid) receptor; test: LPA receptor binding
Procedure: Indeed, the molecular structure of JPH1701 resembles to LPA and PAF. This similarity between the molecular structures prompted us to analyse whether some of the JPH1701's effects were mediated through its binding to the PAF receptor or to the LPA (lysophosphatidic acid) receptor. […] The same results were obtained with LPA receptor (105.3±8.0% and 87.2±4.7% of LPA binding respectively at 0.3 and 2 μM JPH1701). It has been also reported that edelfosine inhibits enzyme activity like protein kinase C or phospholipase C that may explain some of its cytostatic and cytotoxic effects.

PAF receptor = PAF receptor (Homo sapiens, UniProt P25105); test: 3H-C16-PAF binding, membrane homogenates of CHO cells; set-up: expressed in transfected cells; host or cells: CHO cells (membrane homogenates); conditions: 0.3 and 2 μM, FIG. 11A
PAF receptor, sequence (P25105 whole entry): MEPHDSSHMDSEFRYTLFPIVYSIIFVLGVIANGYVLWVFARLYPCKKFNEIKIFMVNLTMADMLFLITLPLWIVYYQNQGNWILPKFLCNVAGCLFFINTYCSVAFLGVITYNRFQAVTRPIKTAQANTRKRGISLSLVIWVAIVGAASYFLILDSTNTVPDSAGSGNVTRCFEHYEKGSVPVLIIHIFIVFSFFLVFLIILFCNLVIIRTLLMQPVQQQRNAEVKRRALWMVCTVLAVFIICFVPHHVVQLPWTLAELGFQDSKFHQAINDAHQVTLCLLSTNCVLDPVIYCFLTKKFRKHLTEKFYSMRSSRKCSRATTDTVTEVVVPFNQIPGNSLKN
Procedure: as §1

MCF-10A = test: Viability (MTT) of non cancerous cells; format: cell-based, human; conditions: FIG. 6D
Procedure: FIG. 6: JPH1701 (or Ohmline) activity on cell motility on cancerous MDA-MB-435s cells and on non cancerous MCF-10A cells. The motility was tested by transwell assay. Additionally, viability tests were performed using MTT assays. FIG. 6A-B) JPH1701 (the concentrations of JPH1701, for the FIG. 6A, are 0 (control condition), 10 nM, 100 nM, 300 nM and 1 μM) reduces motility (FIG. 6A) of MDA-MB-435s wild type (WT) cells from 10 nM without affecting viability (FIG. 6B) except at 10 μM. FIG. 6C-D) MCF-10A motility (FIG. 6C) and viability (FIG. 6D) are not affected by JPH1701 (the concentrations of JPH1701, for the FIG. 6C, are 0 (control condition), 10 nM, 100 nM, 300 nM and 1 μM). FIG. 6E-F) Effect on SK3 dependent motility.
The immortalized normal mammary epithelial cell lines MCF-10A and 184A1 were cultured in DMEM/Ham's F-12, 1:1 mix containing 5% horse serum (Invitrogen Life Technologies, France), insulin (10 μg/ml), epidermal growth factor (20 ng/ml), hydrocortisone (0.5 μg/ml) and, respectively for MCF-10A and 184A1, 100 ng/ml cholera toxin and 1 ng/ml cholera toxin plus 5 μg/ml transferrin.

SK2 = target: T1, SK2 (Homo sapiens, UniProt Q9H2S1); test: Whole-cell K+ currents in HEK293 cells expressing recombinant SK2; format: cell-based; conditions: 10 μM, FIG. 9B
T1 construct: expressed in transfected cells; host or cells: HEK293
T1 sequence (Q9H2S1 whole entry): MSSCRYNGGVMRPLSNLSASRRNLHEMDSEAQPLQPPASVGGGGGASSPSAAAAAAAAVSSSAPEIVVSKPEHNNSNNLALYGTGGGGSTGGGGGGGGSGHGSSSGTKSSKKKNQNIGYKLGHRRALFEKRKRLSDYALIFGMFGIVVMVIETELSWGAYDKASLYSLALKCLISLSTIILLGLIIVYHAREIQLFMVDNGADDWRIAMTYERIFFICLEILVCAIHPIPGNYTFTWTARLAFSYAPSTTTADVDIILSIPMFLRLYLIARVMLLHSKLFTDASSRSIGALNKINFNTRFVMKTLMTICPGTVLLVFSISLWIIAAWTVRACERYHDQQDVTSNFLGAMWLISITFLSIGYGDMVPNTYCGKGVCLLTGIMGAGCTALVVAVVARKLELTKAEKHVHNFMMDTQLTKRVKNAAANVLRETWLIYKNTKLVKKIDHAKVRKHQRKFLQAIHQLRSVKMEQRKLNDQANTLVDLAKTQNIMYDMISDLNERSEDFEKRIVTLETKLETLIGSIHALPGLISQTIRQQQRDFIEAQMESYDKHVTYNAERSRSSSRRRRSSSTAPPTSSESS
Procedure: FIG. 9. Selectivity effect of JPH1701 on SKCa subtype and on IKCa channels. FIG. 9A) Example of whole-cell K^+ currents recorded in HEK293 cells expressing recombinants SK1, SK2, SK3 and IKCa channels before and after application of 10 μM JPH1701 (upper graphs: SK1 and SK2 respectively, bottom graphs: SK3 and IKCa respectively). Currents were generated by ramp protocol from −100 mV to +60 mV in 500 ms from a constant holding of 0 mV and with a pCa 6. FIG. 9B) Histograms showing the effect of 10 μM JPH1701 on SKCa (SK1, SK2, SK3) and IKCa current amplitudes recorded at 0 mV. […] For each channel (SK1, SK2, SK3 and IKCa) the left column (pale grey) represents the control result and the right column (dark grey) represents the result after JPH1701 application.
The selectivity of JPH1701 toward the others members of the SKCa/IKCa channels was tested. […] The experimental protocol was similar to the one used in FIG. 8. JPH1701 was tested for membrane potential from +60 mV to −100 mV on 500 msec.

hexadecyloxy-2-O-methyl-sn-glycerol-lactose [JPH1701]
Inhibition of 125I-apamin binding (SKCa channel): does not inhibit | IC50 (PhosphoLipase C (PLC)): 7 µM | % of LPA binding ([1]; 0.3 μM): 105.3±8.0% | % of LPA binding ([1]; 2 μM): 87.2±4.7% | Interaction with C16-PAF binding site of PAF receptor (PAF receptor): unable to interact | Effect on cell viability of non-cancerous cells (MCF-10A): did not affected | Effect on SK2 channels (SK2): inactive
